The source of these data is PMC5658362 (Scientific Reports, 2017).

The subject of one assay is ΔtlpC H. pylori PMSS1. Kind of assay: Swimming behaviour (direction change) chemotaxis assay, ΔtlpC mutant. Type of assay: cell-based, Helicobacter pylori.
The next assay relates to McpP. Details: method as in PMID 26048936. The conditions noted are these: P. aeruginosa sCACHE receptor McpP; cited from earlier work.
A further assay has as its system H. pylori. The conditions noted are these: cited from earlier work.
For the next assay, the target named is T1, TlpC LBD S104A (Helicobacter pylori, UniProt O24911, S104A).
T1 sequence (O24911 34-297 S104A): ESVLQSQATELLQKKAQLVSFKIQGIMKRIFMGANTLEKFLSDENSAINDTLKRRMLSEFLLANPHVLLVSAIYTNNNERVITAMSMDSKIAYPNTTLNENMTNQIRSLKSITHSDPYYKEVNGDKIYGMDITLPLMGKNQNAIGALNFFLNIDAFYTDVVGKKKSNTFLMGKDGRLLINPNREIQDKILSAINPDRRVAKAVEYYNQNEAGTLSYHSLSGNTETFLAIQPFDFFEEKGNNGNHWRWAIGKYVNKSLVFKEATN
Kind of assay: ITC titration of TlpC LBD variant with lactate. Type of assay: binding. As for the experimental part:
(§1) The expression vectors for single-point variants of TlpC LBD in which S104, Y151, K153, N213, I218 or Y285 were replaced by alanine, and Y249 by phenylalanine, were prepared from a TlpC-expressing plasmid described previously. This plasmid expresses codon-optimised H. pylori 26695 TlpC LBD consisting of amino acid residues 34–297 (Fig. 1a). Mutants were created using the QuikChange Mutagenesis Kit (Stratagene). TlpC LBD and its variants were expressed and purified following the previously published procedure.
(§2) Measurements were performed on a MicroCal VP-ITC instrument microcalorimeter (MicroCal) at 25 °C. […] The data was fitted to a single-site binding model using non-linear least-squares regression (Origin 7, OriginLab, USA), yielding the binding enthalpy ∆H, dissociation constant K D, and binding entropy […]. Each experiment was repeated three times.

The target in another assay is T2, TlpC LBD Y151A (Helicobacter pylori, UniProt O24911, Y151A).
T2 sequence (O24911 34-297 Y151A): T1 sequence (O24911 34-297 S104A)
Nature of the assay: ITC titration of TlpC LBD variant with lactate. Type of assay: binding. As for the experimental part:
as §1, §2
In general terms: Isothermal titration calorimetry measures the heat released or taken up as one component is titrated into another.

The target of a further assay is T3, TlpC LBD I218A (Helicobacter pylori, UniProt O24911, I218A).
T3 sequence (O24911 34-297 I218A): T1 sequence (O24911 34-297 S104A)
Nature of the assay: ITC titration of TlpC LBD variant with lactate. Type of assay: binding. Here is the method:
as §1, §2

In the next assay the target is T4, TlpC LBD N213A (Helicobacter pylori, UniProt O24911, N213A).
T4 sequence (O24911 34-297 N213A): T1 sequence (O24911 34-297 S104A)
Kind of assay: ITC titration of TlpC LBD variant with lactate. In kind it is binding. Here is the method: as §1, §2

In the next assay the target is T5, TlpC LBD K153A (Helicobacter pylori, UniProt O24911, K153A).
T5 sequence (O24911 34-297 K153A): T1 sequence (O24911 34-297 S104A)
Nature of the assay: ITC titration of TlpC LBD variant with lactate. Type of assay: binding. As for the experimental part:
as §1, §2

Assay [1] deals with wild-type H. pylori PMSS1. Nature of the assay: Swimming behaviour (direction change) chemotaxis assay, wild type. Type of assay: cell-based, Helicobacter pylori.
In the next assay the target is T6, TlpC LBD (Helicobacter pylori, UniProt O24911).
T6 sequence (O24911 34-297 Y285F): T1 sequence (O24911 34-297 S104A)
Nature of the assay: ITC titration of TlpC LBD variant with lactate. Type of assay: binding. The conditions noted are these: text prints Y285A substitution.

The target of a further assay is TlpC LBD native (Helicobacter pylori, UniProt O24911). Nature of the assay: ITC titration of TlpC LBD with ligand. In kind it is binding. Particulars: for heat release or absorption on titration (binding): 5 mM ligand into 10 µM protein. As for the experimental part:
as §1, §2

Entries after “also recorded” stand apart in the source; their conditions may differ. Structures can show the parent of a compound that is named as a salt.

As for `Cl` [HCl], the “chemotaxis response (repellent)” value in the assay on ΔtlpC H. pylori PMSS1 (10 mM HCl) was “retained chemotaxis responses”.
Consider `CC(=O)O` [acetate], for which the “binding to McpP” value in the assay on McpP was “binds”.
In the case of `c1ccc(-c2ccccn2)nc1` [dipyridyl], the “chemotaxis response (attractant)” value in the assay on ΔtlpC H. pylori PMSS1 (50 μM dipyridyl) is reported as “retained chemotaxis responses”.
What is called Kd is the equilibrium constant for the complex coming apart. With `CC(O)C(=O)O` (centres unmarked) [lactate], in the assay on H. pylori, the “concentration with inhibitory effect on H. pylori growth” value is at least 10 mM. For the same molecule, the “inhibitory effect on H. pylori viability among tested SCFA” value in the assay on H. pylori (short chain fatty acids secreted by LAB) is recorded as “strongest inhibitory effect”. Also, the “Enthalpy, ∆H” value at TlpC LBD S104A is given as −13,105 ± 318.0 cal/mol; at TlpC LBD Y151A, −12,040 ± 250.2 cal/mol; on TlpC LBD I218A, −18,145.0 ± 49.0 cal/mol; on TlpC LBD K153A, −12,730 ± 345.0 cal/mol; on TlpC LBD native (native TlpC LBD), −21,323.3 ± 713.0 cal/mol. Also, the “Entropy, ∆S” value is given as −28.2 ± 1.0 cal/mol/degree on TlpC LBD S104A; −24.1 ± 1.0 cal/mol/degree on TlpC LBD Y151A; −49.4 ± 0.2 cal/mol/degree on TlpC LBD I218A; −27.5 ± 1.0 cal/mol/degree at TlpC LBD K153A; −54.1 ± 2.0 cal/mol/degree at TlpC LBD native (native TlpC LBD). The “effect of substitution on lactate binding” value on TlpC LBD N213A and at TlpC LBD was “abolished the binding” in each case. The “chemotactic response to lactate” value with ΔtlpC H. pylori PMSS1 (all tested concentrations (0.1, 1, 10 mM)) is “abolished the chemotactic response; also recorded: drastically reduced”. The “chemotactic (attractant) response, direction changes in 3 s” value is “significant response; also recorded: strongest” in assay [1] (0.1 mM lactate), “detectable” in [1] (1.0 mM lactate), “not detectable; also recorded: did not elicit a positive chemotactic response” in assay [1] (10 mM lactate) and “lost the response” in assay [1] (concentrations higher than 0.1 mM). In [1] (order of magnitude, tested 0.1-10 mM), the “optimal concentration at which lactate is sensed as attractant” value was determined as 0.1 mM. At McpP, the dissociation constant Kd is 107 µM.
Consider `O=C(O)CC(O)C(=O)O` (centres unmarked) [malate], for which, at TlpC LBD native, the “heat release or absorption on titration (binding)” value was “no significant heat release or absorption”.
Same read-out and setting: the entry for `O=C(O)CC(=O)C(=O)O` [oxaloacetate] is “no significant heat release or absorption”.
For the molecule `CCC(=O)O` [propionate], the “binding to McpP” value in the assay with McpP was “binds”.
In the case of `CC(=O)C(=O)O` [pyruvate], in the assay with McpP, the “binding to McpP” value is recorded as “binds”. The “heat release or absorption on titration (binding)” value at TlpC LBD native is reported as “no significant heat release or absorption”.
